Assay [1] concerns corneodesmosomes in stratum corneum tape strips. The experiment in a line: Treatment of tape strips from psoriatic skin with proteases, corneodesmosome density by electron microscopy. Also on record: species or system human. The settings on record: 22-50 nM recombinant SCCE or SCTE, 1-6 h at 37° C. On the procedure: Tape strips are obtained according to a method described by Guerrin et al, 1998.
Small pieces of tape strips from control patients along with patients suffering from the skin conditions eczema, psoriasis, dermatitis and psoriasis are fixed for 2 h at 4° C. in Karnovsky fixative (2% paraformaldehyde, 2.5% gluteraldehyde in 0.1M phosphate buffer, pH 7.4). The samples are then washed three times in 0.1M phosphate buffer (pH7.4) containing 10% sucrose for 30 minutes each at 4° C.
Secondary fixation is carried out in aqueous 2% osmium tetroxide solution for 1 hour at room temperature. Dehydration is through a graded series of ethanol at room temperature (75% ethanol for 15 minutes; 95% ethanol for 15 minutes; 2 washes of 100% ethanol for 15 minutes; 100% ethanol dried over anhydrous copper sulphate for 15 minutes).
For resin embedding, samples are first placed in the intermediate solvent, propylene oxide, for two changes of 15 minutes duration. This is followed by infiltration in a 50:50 mixture of propylene oxide:araldite resin overnight at room temperature. […]
Ultrathin sections (70-90 nm) are cut on an ultramicrotome. […] Electron micrographs are recorded on Agfa Scientific 23D56 EM film.
Corneodesmosome density (area occupied by corneodesmosomes divided by total area of micrograph) is measured on electron micrographs of tape strips of each condition. […]

The target in the next assay is T1, Corneodesmosin (Homo sapiens, UniProt Q15517).
T1 construct: The native form of corneodesmosin has a molecular weight of between 50 and 56 kDa; from tissue; host or cells: human epidermis (TENP-40 buffer extract)
T1 sequence (Q15517 33-529): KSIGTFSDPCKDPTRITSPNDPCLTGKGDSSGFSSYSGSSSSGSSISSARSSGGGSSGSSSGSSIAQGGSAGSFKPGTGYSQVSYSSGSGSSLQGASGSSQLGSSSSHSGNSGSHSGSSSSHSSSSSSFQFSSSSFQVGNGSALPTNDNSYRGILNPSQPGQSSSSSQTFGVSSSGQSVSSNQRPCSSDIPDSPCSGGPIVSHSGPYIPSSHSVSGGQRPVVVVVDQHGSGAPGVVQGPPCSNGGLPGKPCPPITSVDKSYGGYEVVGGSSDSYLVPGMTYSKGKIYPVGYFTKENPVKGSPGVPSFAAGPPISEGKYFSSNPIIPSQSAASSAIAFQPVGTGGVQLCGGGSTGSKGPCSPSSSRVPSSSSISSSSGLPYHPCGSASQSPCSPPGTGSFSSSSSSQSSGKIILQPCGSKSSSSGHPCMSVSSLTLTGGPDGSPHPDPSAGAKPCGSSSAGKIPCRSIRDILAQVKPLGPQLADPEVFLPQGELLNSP
The experiment in a line: Cleavage of adhesion proteins from human epidermis by recombinant SCCE/SCTE (immunoblot). The format is biochemical. The following applies: human epidermis protein extract incubated with active recombinant enzyme at 37 C. Here is the method:
(§1) Recombinant ProSCCE is produced and purified as described above. Recombinant ProSCCE is activated with agarose-bound trypsin, as described in Brasttsand & Egelrud, 1999.
(§2) Proteins are extracted from human epidermis in the presence of a detergent (TENP-40 buffer extract) and incubated with active SCCE for 37 C. for 4 h. The reactions are stopped by boiling for 2 mins after Laemmli's sample buffer is added. The proteins are immunoblotted with antibodies against corneodesmosomal proteins.
On the technique in general: Immunoblotting shows a protein as a band on a membrane.

Another assay deals with T2, Plakoglobin (Homo sapiens, UniProt P14923).
T2 construct: The native form of plakoglobin has a molecular weight of between 85 kDa and 75 kDa; from tissue; host or cells: human epidermis (TENP-40 buffer extract)
T2 sequence (P14923 1-745): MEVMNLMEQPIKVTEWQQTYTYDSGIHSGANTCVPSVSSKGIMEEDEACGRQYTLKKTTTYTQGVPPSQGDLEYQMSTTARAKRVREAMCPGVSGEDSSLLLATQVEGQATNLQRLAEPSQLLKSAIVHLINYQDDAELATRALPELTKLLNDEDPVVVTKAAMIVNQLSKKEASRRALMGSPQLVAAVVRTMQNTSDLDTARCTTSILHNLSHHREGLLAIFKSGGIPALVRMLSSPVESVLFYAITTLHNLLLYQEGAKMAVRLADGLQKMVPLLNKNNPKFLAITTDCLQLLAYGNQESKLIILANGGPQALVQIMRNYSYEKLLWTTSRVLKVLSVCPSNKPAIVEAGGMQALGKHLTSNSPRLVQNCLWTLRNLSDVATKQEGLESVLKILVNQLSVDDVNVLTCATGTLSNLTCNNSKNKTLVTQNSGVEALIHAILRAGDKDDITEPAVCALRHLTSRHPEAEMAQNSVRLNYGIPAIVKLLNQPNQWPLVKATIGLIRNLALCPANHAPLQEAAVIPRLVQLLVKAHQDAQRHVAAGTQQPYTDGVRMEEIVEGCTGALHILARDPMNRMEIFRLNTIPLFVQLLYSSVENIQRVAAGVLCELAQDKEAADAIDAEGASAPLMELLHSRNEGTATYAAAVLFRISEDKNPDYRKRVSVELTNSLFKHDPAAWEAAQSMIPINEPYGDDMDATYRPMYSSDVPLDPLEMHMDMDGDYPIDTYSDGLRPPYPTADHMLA
The assay is described as above. The format is biochemical. The following applies: human epidermis protein extract incubated with active recombinant enzyme at 37 C. Here is the method:
as §1, §2

The test system of another assay is Desmoplakin. The assay is described as above. The format is biochemical. The settings on record: human epidermis protein extract incubated with active recombinant enzyme at 37 C. On the procedure:
as §1, §2

The subject of the next assay is Desmocollin. The description is as above. The assay is classed as biochemical. The following applies: human epidermis protein extract incubated with active recombinant enzyme at 37 C. Here is the method:
as §1, §2

The target of the next assay is T3, Envoplakin (Homo sapiens, UniProt Q92817).
T3 construct: The native form of Envoplakin has a molecular weight of between 124-209 kDa; from tissue; host or cells: human epidermis (TENP-40 buffer extract)
T3 sequence (Q92817 whole entry): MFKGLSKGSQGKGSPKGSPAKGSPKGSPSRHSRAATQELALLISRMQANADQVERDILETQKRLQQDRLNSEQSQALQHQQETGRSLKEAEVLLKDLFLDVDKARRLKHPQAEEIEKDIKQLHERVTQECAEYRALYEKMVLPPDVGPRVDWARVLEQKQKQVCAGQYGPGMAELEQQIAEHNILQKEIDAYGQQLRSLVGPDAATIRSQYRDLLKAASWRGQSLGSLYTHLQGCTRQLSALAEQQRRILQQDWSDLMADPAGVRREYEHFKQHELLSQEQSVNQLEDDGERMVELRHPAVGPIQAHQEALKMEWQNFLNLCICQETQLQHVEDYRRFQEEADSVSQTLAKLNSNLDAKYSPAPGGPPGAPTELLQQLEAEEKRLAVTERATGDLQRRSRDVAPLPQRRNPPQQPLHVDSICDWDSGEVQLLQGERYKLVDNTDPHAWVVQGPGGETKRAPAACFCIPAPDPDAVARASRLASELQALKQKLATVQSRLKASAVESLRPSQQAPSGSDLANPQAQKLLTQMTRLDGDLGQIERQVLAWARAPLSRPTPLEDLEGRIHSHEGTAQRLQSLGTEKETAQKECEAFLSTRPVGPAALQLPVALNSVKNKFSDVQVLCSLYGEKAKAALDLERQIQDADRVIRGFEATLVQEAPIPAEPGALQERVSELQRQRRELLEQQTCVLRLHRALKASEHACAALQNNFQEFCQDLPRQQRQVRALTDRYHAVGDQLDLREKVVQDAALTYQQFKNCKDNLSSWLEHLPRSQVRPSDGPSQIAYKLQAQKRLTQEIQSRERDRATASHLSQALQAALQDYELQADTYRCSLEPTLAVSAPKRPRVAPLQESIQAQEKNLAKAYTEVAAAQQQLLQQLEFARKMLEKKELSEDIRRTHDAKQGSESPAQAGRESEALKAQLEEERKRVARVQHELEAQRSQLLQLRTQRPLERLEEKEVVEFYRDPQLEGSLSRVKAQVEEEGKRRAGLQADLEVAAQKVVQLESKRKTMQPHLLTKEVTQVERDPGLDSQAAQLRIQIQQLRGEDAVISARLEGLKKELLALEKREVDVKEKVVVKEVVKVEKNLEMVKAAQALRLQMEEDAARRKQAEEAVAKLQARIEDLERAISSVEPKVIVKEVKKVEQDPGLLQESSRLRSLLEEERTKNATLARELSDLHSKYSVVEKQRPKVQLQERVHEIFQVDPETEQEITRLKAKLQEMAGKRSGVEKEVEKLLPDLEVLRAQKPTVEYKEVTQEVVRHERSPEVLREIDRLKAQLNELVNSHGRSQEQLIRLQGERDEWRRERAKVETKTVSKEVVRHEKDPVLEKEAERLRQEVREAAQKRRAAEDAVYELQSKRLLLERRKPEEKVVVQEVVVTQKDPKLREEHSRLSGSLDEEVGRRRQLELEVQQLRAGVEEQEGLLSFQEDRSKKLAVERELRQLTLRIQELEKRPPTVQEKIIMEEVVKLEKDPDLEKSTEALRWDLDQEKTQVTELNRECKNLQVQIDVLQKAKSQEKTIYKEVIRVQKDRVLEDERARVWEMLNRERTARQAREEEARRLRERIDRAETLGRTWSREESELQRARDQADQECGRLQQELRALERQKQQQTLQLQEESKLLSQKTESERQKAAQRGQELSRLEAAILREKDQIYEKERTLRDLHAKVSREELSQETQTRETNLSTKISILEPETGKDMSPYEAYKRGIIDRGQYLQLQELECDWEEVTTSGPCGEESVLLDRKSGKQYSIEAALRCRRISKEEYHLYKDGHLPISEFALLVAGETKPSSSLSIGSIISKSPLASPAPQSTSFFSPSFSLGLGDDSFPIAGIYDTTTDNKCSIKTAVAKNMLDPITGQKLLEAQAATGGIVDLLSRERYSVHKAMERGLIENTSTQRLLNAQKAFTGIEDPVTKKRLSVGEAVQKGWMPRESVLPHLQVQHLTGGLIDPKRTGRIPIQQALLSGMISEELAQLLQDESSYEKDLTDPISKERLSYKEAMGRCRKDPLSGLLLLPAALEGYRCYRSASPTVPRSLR
The description is as above. The assay is classed as biochemical. The settings on record: human epidermis protein extract incubated with active recombinant enzyme at 37 C. On the procedure:
as §1, §2

The subject of another assay is Desmoglein. The assay is described as above. The assay is classed as biochemical. The following applies: human epidermis protein extract incubated with active recombinant enzyme at 37 C. On the procedure:
as §1, §2

With “SCTE: recombinant Stratum Corneum Tryptic Enzyme expressed in an active form”, the “number of corneodesmosomes in treated versus untreated stratum corneum” value in assay [1] was “decrease significantly”. In addition, the “proteolysis of Corneodesmosin” value with Corneodesmosin is given as “proteolysed”. Moreover, in the assay with Plakoglobin, the “proteolysis of Plakoglobin” value was “proteolysed”. Moreover, the “proteolysis of Desmoplakin” value in the assay with Desmoplakin is on record as “proteolysed”. The “proteolysis of Desmocollin” value in the assay with Desmocollin is reported as “proteolysed”. Further, the “proteolysis of Envoplakin” value with Envoplakin is “proteolysed”. Also, in the assay on Desmoglein, the “proteolysis of Desmoglein” value was “proteolysed”.

Source of the values: patent US20040106120A1, “Diagnosis and treatment of disease” (priority 2000, published 2004).
